Data taken from patent US10414759B2, “Phenylthiazoles and uses thereof” (Purdue Research Foundation, priority 2017, dated 2019).
≈ marks a conversion by molar mass, not a printed value.

Tests used:
[1] = test system: Enterococcus faecium ATCC 700221 (VRE); experiment: MIC/MBC Gram-positive pathogens (Table 9); type: cell-based; conditions: Table 9; Enterococcus faecium ATCC 700221 (VRE); read-out: MIC
Experimental: (§1) The minimum inhibitory concentration (MIC) of tested compounds and control antibiotics were determined using the broth microdilution method in accordance with the recommendations contained in the Clinical and Laboratory Standards Institute guidelines, against methicillin-sensitive (ATCC 6538 and NRS107), methicillin-resistant (MRSA), and vancomycin-resistant (VRSA) Staphylococcus aureus, Staphylococcus epidermidis, Enterococcus faecalis, E. faecium, Listeria monocytogenes, and Streptococcus pneumoniae clinical isolates. A bacterial solution equivalent to 0.5 McFarland standard was prepared and diluted in cation-adjusted Mueller-Hinton broth (CAMHB) to achieve a bacterial concentration of about 5×10^5 CFU/mL and seeded in 96-well plates. Enterococcus faecium was diluted in brain heart infusion broth. Enterococcus faecalis, Streptococcus pneumonia and Listeria monocytogenes were diluted in tryptone soya broth (TSB). Compounds and control drugs were added in the first row of 96-well plates and serially diluted (to achieve a concentration gradient ranging from 128 to 1 μg/mL). Plates were then incubated aerobically at 37° C. for at least 18 hours. The minimum bactericidal concentration (MBC) of the active compounds was tested by plating 5 μL from wells with no growth onto Tryptic soy agar (TSA) plates.

[2] = test system: human colorectal (Caco-2) cell; experiment: In vitro cytotoxicity against Caco-2 cells (MTS); type: cell-based; conditions: at 32 μg/mL
Experimental: Tested compounds were assayed (at concentrations of 16, 32, and 64 μg/mL) against a human colorectal (Caco-2) cell to determine the potential toxic effect to mammalian cells in vitro. Briefly, cells were cultured in Dulbecco's Modified Eagle Medium (DMEM) supplemented with 20% fetal bovine serum (FBS), non-essential amino acids (1×), and penicillin-streptomycin at 37° C. with CO2 (5%). Control cells received DMSO alone at a concentration equal to that in drug-treated cell samples. The cells were incubated with the compounds (in triplicate) in a 96-well plate at 37° C. with CO2 (5%) for two hours. The assay reagent MTS 3-(4,5-dimethylthiazol-2-yl)-5-(3-carboxymethoxyphenyl)-2-(4-sulfophenyl)-2H-tetrazolium) (Promega, Madison, Wis., USA) was subsequently added and the plate was incubated for four hours. Absorbance readings (at OD490) were taken using a kinetic microplate reader (Molecular Devices, Sunnyvale, Calif., USA). The quantity of viable cells after treatment with each compound was expressed as a percentage of the viability of DMSO-treated control cells (average of triplicate wells±standard deviation). The toxicity data was analyzed via a two-way ANOVA, with post hoc Sidak's multiple comparisons test (P<0.05), utilizing GraphPad Prism 6.0 (GraphPad Software, La Jolla, Calif.).

VRS12 (VRSA) = experiment: MIC/MBC S. aureus strains (Table 8); type: cell-based; conditions: Staphylococcus aureus, Table 8, VRS12 (VRSA)
Experimental: as §1

VRS10 (VRSA) = experiment: MIC/MBC S. aureus strains (Table 8); type: cell-based; conditions: Staphylococcus aureus, Table 8, VRS10 (VRSA)
Experimental: as §1

[3] = test system: Cephalosporin-resistant Streptococcus pneumoniae ATCC 51916; experiment: MIC/MBC Gram-positive pathogens (Table 9); type: cell-based; conditions: ATCC51916
Experimental: (§2) A bacterial solution equivalent to 0.5 McFarland standard was prepared and diluted in cation-adjusted Mueller-Hinton broth (CAMHB) to achieve a bacterial concentration of about 5×10^5 CFU/mL and seeded in 96-well plates. Enterococcus faecium was diluted in brain heart infusion broth. Enterococcus faecalis, Streptococcus pneumonia and Listeria monocytogenes were diluted in tryptone soya broth (TSB).

[4] = test system: Listeria monocytogenes ATCC 19111; experiment: MIC/MBC Gram-positive pathogens (Table 9); type: cell-based
Experimental: as §2

[5] = test system: Methicillin-resistant Streptococcus pneumoniae ATCC 700677; experiment: MIC/MBC Gram-positive pathogens (Table 9); type: cell-based; conditions: ATCC700677
Experimental: as §2

[6] = test system: Enterococcus faecalis ATCC 51299 (VRE); experiment: MIC/MBC Gram-positive pathogens (Table 9); type: cell-based; conditions: Table 9; Enterococcus faecalis ATCC 51299 (VRE)
Experimental: as §2

[7] = test system: Methicillin-resistant Staphylococcus epidermidis NRS101; experiment: MIC/MBC Gram-positive pathogens (Table 9); type: cell-based
Experimental: as §2

MRSA (USA300) = experiment: Time-kill assay; type: cell-based, Staphylococcus aureus
Experimental: Aliquots (100 μL) were taken from each sample after 2, 4, 6, 8, 10, 12, and 24 hours, serially diluted in phosphate-buffered saline, and transferred to Trypticase soy agar (TSA) (Becton, Dickinson and Company, Sparks, Md., USA) plates. Plates were incubated at 37° C. for at least 16 hours before counting viable CFU/mL to determine the time required to reduce the bacterial cell count by 3-log10.

S. aureus NRS107 = experiment: MIC/MBC S. aureus strains (Table 8); type: cell-based, Staphylococcus aureus; conditions: Staphylococcus aureus; Table 8; S. aureus NRS107
Experimental: as §2

MRSA (2658 RCMB) = experiment: MIC against MRSA (2658 RCMB), broth dilution; type: cell-based, Staphylococcus aureus; conditions: Staphylococcus aureus; Table 7; initial screening, MRSA (2658 RCMB); read-out: minimum inhibitory concentration (MIC)
Experimental: Bacteria were cultured in cation-adjusted Mueller Hinton broth in a 96-well plate. Compounds, using triplicate samples, were added to the plate and serially diluted. […] Plates were visually inspected and the MIC was categorized as the concentration at which no visible growth of bacteria was observed. The average of triplicate MIC determinations is reported.
as §2

MRSA NRS119 = experiment: MIC/MBC S. aureus strains (Table 8); type: cell-based; conditions: Staphylococcus aureus
Experimental: as §2

S. aureus ATCC 6538 = experiment: MIC/MBC S. aureus strains (Table 8); type: cell-based; conditions: Staphylococcus aureus, ATCC6538
Experimental: as §2

MRSA NRS123 (USA400) = experiment: MIC/MBC S. aureus strains (Table 8); type: cell-based; conditions: Staphylococcus aureus
Experimental: as §2

MRSA NRS385 = experiment: MIC/MBC S. aureus strains (Table 8); type: cell-based; conditions: Staphylococcus aureus
Experimental: as §2

MRSA NRS384 (USA300) = experiment: MIC/MBC S. aureus strains (Table 8); type: cell-based; conditions: Staphylococcus aureus
Experimental: as §2

MRSA NRS386 = experiment: MIC/MBC S. aureus strains (Table 8); type: cell-based; conditions: Staphylococcus aureus
Experimental: as §2

[8] = ATCC19111, Table 9, Listeria monocytogenes ATCC 19111

In the case of `Cc1nc(-c2ccc(C(C)(C)C)cc2)sc1-c1ccnc(NC(=N)c2cccnc2)n1` [Compound 63, N-(4-(2-(4-(tert-Butyl)phenyl)-4-methylthiazol-5-yl)pyrimidin-2-yl) nicotinimidamide], the MIC [1] is reported as 8 µg/mL (≈ 18.7 µM), the “tolerability to human colorectal cells, in words” value [2] is reported as “highly tolerable” and the MBC (VRS12 (VRSA); read-out: MBC) is reported as 4 µg/mL (≈ 9.33 µM). For the same compound, the MIC (VRS12 (VRSA); read-out: MIC) was 4 µg/mL (≈ 9.33 µM), the MBC (VRS10 (VRSA); read-out: MBC) was 4 µg/mL (≈ 9.33 µM) and the MIC (VRS10 (VRSA); read-out: MIC) was 4 µg/mL (≈ 9.33 µM). For the same compound, the MBC [3] was 8 µg/mL (≈ 18.7 µM), the MIC [3] was 4 µg/mL (≈ 9.33 µM) and the MBC [4, 8] was 64 µg/mL (≈ 149 µM). For the same compound, the MIC [4, 8] was 4 µg/mL (≈ 9.33 µM), the “MBC values relative to MIC values against L. monocytogenes” value ([4]; text b122) was “more than three-fold higher” and the MBC [5] was 8 µg/mL (≈ 18.7 µM). The MIC [5] was 4 µg/mL (≈ 9.33 µM), the MIC [6] was 8 µg/mL (≈ 18.7 µM) and the MBC [7] was over 64 µg/mL. For the same compound, the MIC [7] was 64 µg/mL (≈ 149 µM), the “bactericidal / bacteriostatic behaviour in time-kill assay, in words” value (MRSA (USA300); MRSA, 3.0×MIC) was “bacteriostatic activity” and the “decrease in MRSA CFU” value (MRSA (USA300); over 24 hours) was 2.3 log. For the same compound, the MBC (S. aureus NRS107) was 4 µg/mL (≈ 9.33 µM), the MIC (S. aureus NRS107) was 4 µg/mL (≈ 9.33 µM) and the MIC (MRSA (2658 RCMB)) was 0.78 µg/mL (≈ 1.82 µM). For the same compound, the MBC (MRSA NRS119) was 4 µg/mL (≈ 9.33 µM), the MIC (MRSA NRS119) was 4 µg/mL (≈ 9.33 µM) and the MBC (S. aureus ATCC 6538) was 4 µg/mL (≈ 9.33 µM). For the same compound, the MIC (S. aureus ATCC 6538) was 4 µg/mL (≈ 9.33 µM), the MBC (MRSA NRS123 (USA400)) was 4 µg/mL (≈ 9.33 µM) and the MIC (MRSA NRS123 (USA400)) was 4 µg/mL (≈ 9.33 µM). It also gave an MBC (MRSA NRS385) of 4 µg/mL (≈ 9.33 µM), an MIC (MRSA NRS385) of 4 µg/mL (≈ 9.33 µM) and an MBC (MRSA NRS384 (USA300)) of 4 µg/mL (≈ 9.33 µM). The MIC (MRSA NRS384 (USA300)) was 4 µg/mL (≈ 9.33 µM), the MBC (MRSA NRS386) was 4 µg/mL (≈ 9.33 µM) and the MIC (MRSA NRS386) was 4 µg/mL (≈ 9.33 µM).
